Laboratory results reported in US20110311601A1, “ANTIMICROBIAL MEDICAL DEVICES” (priority 2010, published 2011).
Values joined by “and” are separate entries in the source; they are usually repeats but may differ in a detail not shown here. Identical values can stand only once. Where no end group is shown, it is not given here.

How the values were obtained:
[1] = system: Escherichia coli strain DB3.1; experiment: microdilution assay of hβD2 coated biopolymers (percentage killing); type: cell-based
Procedure: Microdilution assay. In the microdilution assay the microorganisms were exposed to a potential bio-active substance in liquid surrounding, thus free to move. This potential bio-active substance was either homogenously dispersed in the liquid surrounding by active mixing at the beginning of the tests or could spread out of the sample during incubation time. The bioactivity was measured in percentage killing, wherein the number of colony forming units (CFU) in a control without test substance was set to 0% killing and a reduction in the cell number to zero was set to 100% killing.
Fresh cells were harvested by centrifugation at 1600 rpm for 10 min, the supernatant was removed and the cell pellet was resuspended in 5 ml 10 mM sodium phosphate buffer. This procedure was repeated twice. The optical density was adjusted to OD600 of 0.500 with 10 mM sodium phosphate buffer. 100 μl of the bacterial suspension was pipetted in one well of a microtiter plate without optimized surface. 10 μl test substance or test sample was added. In case of a test substance, the mixture was homogenized by absorbing the mixture several times with a pipette. The microtiter plate is then closed with parafilm and incubated at 37° C. for 2 h. After incubation the substances in the wells were mixed by a pipette. […] For evaluation, the grown colonies were counted.
The microdilution assay facilitates the examination of the hβD2 release kinetics of the biopolymers and thus allowed conclusions on what amounts of hβD2 in which time could be released. For comparing on evaluation of the assay the effect of directly applied hβD2 amounts with the effect of hβD2 amounts applied on biopolymers, the achieved percentage killing of bacteria was compared to the killing rate of the hβD2 standard series in the microdilution assays.
The collagen scaffolds and polylactide matrices were examined in the microdilution assay regarding their hβD2 release kinetics. Since the incubation time of the samples in the bacterial suspension is limited, the samples were stored at −25° C. after the test and until completion of a further assay. The thawed samples were then used in a new assay and were incubated again.

[2] = system: Escherichia coli strain DB3.1; experiment: agar diffusion assay (zone of inhibition); type: cell-based
Procedure: Agar diffusion assay. In the agar diffusion assay the microorganisms were exposed immovable to the potential bio-active substance by inclusion in an agar containing medium. The use of a nutrient limited minimal medium led first to a limitation of the development of the bacteria. The test substances were dependent on the application form pipetted into the punched recess in the agar or placed with a test sample into the punched recess in the agar and spread out during incubation time by diffusion into the agar. After incubation the nutrient limitation of the bacteria was revoked. The determination of the bioactivity was performed by measuring the diameter of the raised zone of inhibition surrounding the recess.
Therefore, Escherichia coli strain DB3.1 (Invitrogen, Cat. No. 11782-018) was used. E. coli was streaked from a glycerol stock onto a Brain Heart Infusion (BHI) agar plate (3.7% (w/v) BHI Bouillon, 1.5% (w/v) Agar) and was grown overnight at 37° C. Subsequently one colony was used to inoculate 8 ml of TSB medium (Caso Bouillon 3% (w/v)) without any antibiotics in a culture tube which was then incubated shaking (120 rpm) over night at 37° C. 50 μl of this pre-culture was used to inoculate again 8 ml of TSB medium (Caso Bouillon 3% (w/v)) without any antibiotics in a fresh culture tube which was then incubated shaking (125 rpm) for 3.5 h at 37° C. The OD600 of the bacterial suspension was then 0.500.
The underlay medium (11% (v/v) 0.1 M sodium phosphate buffer pH 7.2, 1% (v/v) TSB-medium, 0.02% (v/v) Tween, 1% (w/v) agarose in distilled water, pH 7.2), a minimal medium, was liquefied using micro waves and cooled to about 47° C. 10 ml underlay medium with 500 μl bacterial suspension were mixed in a 50 ml falcon tube by slight swirling and then was poured into a petri dish. The cooling time was first 15 min at room temperature and then 30 min at 4° C. Afterwards the recesses for test liquids (diameter 3 mm) and test materials (diameter 6 mm), respectively, were punched out from the underlay medium by using a punching-dye. 5 μl test liquid was pipetted per recess and the test materials were laid into the recess or were slid under the underlay medium, respectively. The lid of the plate was closed by parafilm and the plate was incubated over night at 37° C. The next day, the overlay medium (3.4% (w/v) casein peptone, 0.6% (w/v) soy flour peptone, 0.5% (w/v) di-potassium hydrogen phosphate, 1% (w/v) NaCl, 0.5% (w/v) glucose, 1% (w/v) agarose in distilled water) was liquefied using micro waves and cooled to about 47° C. In every Petri dish 10 ml overlay medium were poured on the underlay medium. After cooling for 5 minutes the plate was closed by the lid and incubated at 37° C. for about 2-3 h. For evaluation, the diameter of the raised zones of inhibition surrounding the recesses was measured.
The potential of the chosen biopolymers to release bio-active hβD2 after coating/mixing them with hβD2, was determined by a screening in the diffusion assay (as described in Example 5). The assay allows a correlation between the released amounts of bio-active molecules and the resulting zone of inhibition surrounding the releasing source. A comparison with the effect of directly applied, defined amounts of hβD2 allows an evaluation of the release potential of the test materials.
In the assay films made of 1% hyaluronic acid and 1% alginic acid, gelatin leaves, gelatinized agarose drops of 1% agarose solution and films of the dried drops were used. Additionally three variants of a polylactide matrix (uncoated, coated with collagen, coated with collagen and chondroitin sulphate) and collagen scaffolds were tested.
The samples were prepared as described in example 5 and treated with 10 μg hβD2. For the comparison between the effect of directly applied hβD2 amounts and the effect of hβD2-coated samples a standard series for 0.1, 1, 5 and 10 μg hβD2 was performed. The control was formed by the 0.01% acetic acid. […]

“human β-defensin-2 (GIGDPVTCLKSGAICHPVFCPRRYKQIGTCGLPGTKCCKKP; ends and bridges not checked; cysteine pairing not given here) [hβD2, recombinant hβD2]” gave a bacteria killing ([1]; 2 μg hβD2 on collagen scaffold, after 13 hours) of 18%, a killing rate ([1]; 2 μg hβD2 on collagen scaffold, first 2 hours) of at most 36% and a killing rate ([1]; 4 μg hβD2 and 5 μg chondroitin sulphate on collagen scaffold, 0-2 hours) of 54%. For the same substance, the killing ([1]; 4 μg hβD2 and 20 μg spermidine on collagen scaffold, 0-2 hours) was 19%, the killing rate ([1]; 4 μg hβD2 on collagen scaffold impregnated with 20 μl of 0.1 M L-glutamic acid solution, 0-2 hours) was 53% and the killing rate ([1]; 4 μg hβD2 on collagen scaffold impregnated with 20 μl of 0.1 M L-lysine solution, 0-2 hours) was 11%. The killing ([1]; 4 μg hβD2 on collagen scaffold pre-treated with 10 μl of 0.1% gelatine solution, 0-2 hours) was 94%, the killing rate ([1]; 4 μg hβD2 on collagen scaffold treated with 5 μg BSA, 0-2 hours) was 98% and the “killing of the bacteria” value ([1]; 4 μg hβD2 on collagen scaffold treated with 5 μg HAS, 0-2 hours) was 100%. The killing rate ([1]; 4 μg hβD2 on collagen scaffold treated with 60 μg poly-L-glutamic acid, 0-2 hours) was 23%, the killing rate ([1]; 4 μg hβD2 on collagen scaffold without pre-treatment, first 2 hours) was 89% and 86% and the killing ([1]; 4 μg hβD2 on collagen scaffold, 17th hour) was 25%. For the same substance, the “bio-activity of the scaffolds” value ([1]; 4 μg hβD2 on collagen scaffold, after 20 hours) was “depleted”, the “killing (given as release amount in %)” value ([1]; 4 μg hβD2 on collagen scaffold, first 5 hours) was 38% and the bacteria killing ([1]; 25 μg hβD2 on polylactide matrix coated with collagen and chondroitin sulphate, first two hours) was 89%. For the same substance, the bacteria killing ([1]; 25 μg hβD2 on polylactide matrix coated with collagen, first two hours) was 100%, the bacteria killing ([1]; 25 μg hβD2 on uncoated polylactide matrix, first two hours) was 100% and the killing ([1]; 30 μg hβD2 on collagen scaffold, after 13 hours) was 29%. For the same substance, the killing rate ([1]; 30 μg hβD2 on collagen scaffold, after 17 hours) was 22%, the “activity of the scaffold” value ([1]; 30 μg hβD2 on collagen scaffold, after 20 hours) was “inactive” and the killing rate ([1]; 30 μg hβD2 on collagen scaffold, first 5 hours) was 86%. The “killing (given as release amount in %)” value ([1]; 125 μg hβD2 on collagen scaffold, after 5 hours) was 93%, the “diameter of zone of inhibition” value ([2]; 0.1 μg hβD2 directly applied) was 6 mm and the “diameter of zone of inhibition” value ([2]; 1 μg hβD2 directly applied) was 9 mm. For the same substance, the “diameter of zone of inhibition” value ([2]; 5 μg hβD2 directly applied) was 12 mm, the “diameter of zone of inhibition” value ([2]; 10 μg hβD2 directly applied) was 15 mm and the “formation of a zone of inhibition” value ([2]; 10 μg hβD2 on alginic acid film) was “did not exhibit the formation of a zone of inhibition”. For the same substance, the “formation of a zone of inhibition” value ([2]; 10 μg hβD2 on hyaluronic acid film) was “did not exhibit the formation of a zone of inhibition”.
